Columns and labels:
[1] = test system: primary hippocampal neurons; experiment: Neurite outgrowth from primary hippocampal neurons; assay type: cell-based, Wistar rat; conditions: for stimulation of neurite outgrowth in vitro (conclusion): summary statement; for neurite outgrowth from hippocampal primary neurons (average neurite length): treated with various concentrations of peptide for 24 hours
Protocol: (§1) Dissociated hippocampal and cerebellar (CGN) neurons were isolated from Wistar rat embryos at embryonic day 19 or newborn rats as previously described by Rønn et al. (1999). Briefly, hippocampus was isolated from the brain in ice cold modified Krebs Ringer solution, cleared of blood vessels, roughly homogenised by chopping and then trypsinised. The dissociated cells were washed in the presence of DNAse 1 and soybean trypsin inhibitor. Postnatal hippocampal neurons were plated at a density of 10,000 cells/cm^2 on uncoated 8-well permanox Lab-Tek chamber slides in Neurobasal medium supplemented with 0.4% (w/v) bovine serum albumin (BSA; Sigma-Aldrich), 2% (v/v) B27 Neurobasal supplement, 1% (v/v) glutamax, 100 U/ml penicillin, 100 μg/ml streptomycin and 2% 1 M HEPES (all from Gibco, BRL). After 24 hours, the neurons were fixed with 4% (v/v) formaldehyde for 20 minutes and thereafter immunostained using primary rabbit antibodies against GAP-43 and Alexa Fluor secondary goat anti-rabbit Ig antibodies. Images of at least 200 neurons for each group in each individual experiment were obtained systematically by computer assisted fluorescence microscopy as previously described (Rønn et al., 2000). Briefly, a Nikon Diaphot inverted microscope with a Nikon Plan 20× objective (Nikon, Tokyo, Japan) coupled to a video camera (Grundig Electronics, Germany) was used for recordings. A software package Prima developed at the Protein Laboratory (Copenhagen, Denmark) was used to make a stereologically based determination of neurite length (Rønn et al., 2000).
(§2) Neuronal cell cultures were treated with various concentrations of a peptide for 24 hours, and the average neurite length was evaluated as described above. […] Thus peptide segments number 3 and number 6 from various members of the S100 protein family may represent potent pharmacological tools to induce neuronal differentiation and axon regeneration.

cerebellar (CGN) neurons = experiment: Neurite outgrowth from primary cerebellar neurons; assay type: cell-based, Wistar rat; conditions: treated with various concentrations of peptide for 24 hours
Protocol: as §1, §2

Akt = experiment: Phosphorylation of Akt in primary hippocampal neurons (PAGE method); assay type: cell-based; conditions: neurons cultured 6 hours, stimulated 15 minutes
Protocol: (§3) Primary hippocampal neurons cultured for 6 hours were stimulated with H3 or H6 for 15 minutes. Thereafter the phosphorylation level of the three intracellular messengers involved in neurite outgrowth and survival, Akt, CREB, and ERK, was determined using the PAGE method.

CREB = experiment: Phosphorylation of CREB in primary hippocampal neurons (PAGE method); assay type: cell-based; conditions: neurons cultured 6 hours, stimulated 15 minutes
Protocol: as §3

ERK = experiment: Phosphorylation of ERK in primary hippocampal neurons (PAGE method); assay type: cell-based; conditions: neurons cultured 6 hours, stimulated 15 minutes
Protocol: as §3

[2] = test system: cultured hippocampal neurons; experiment: Intracellular Ca2+ concentration, fura-2 loaded neurons; assay type: cell-based; conditions: fura-2 ratiometric dye
[3] = test system: kainic acid (KA)-induced toxicity; experiment: Kainic acid-induced toxicity (seizures, mortality); assay type: in vivo, Male C57BL/6J mice; conditions: peptide 10 mg/kg daily from day -2; for amount of seizures: 20 mg/kg KA; for profile of seizures (severity): 30 mg/kg KA
Protocol: Male C57BL/6J mice were injected with 10 mg/kg H3 or H6 daily starting from day-2 prior to kainic acid treatment. At day 0 the animals were injected 30 mg/kg KA in order to induce severe seizures, or 20 mg/kg KA in order to induce mild seizures and prevent excessive mortality. Latency and seizure severity were scored for 2 h postinjection by using a numerical scale of 0 to 6: 0—immobility; 1—facial automatism; 2—head nodding; 3—forelimb clonus; 4—rearing; 5—generalized convulsions; 6—death. Control animals received s.c injection of vehicle.

sciatic nerve crush = experiment: Functional recovery after sciatic nerve crush (Sciatic Function Index); assay type: in vivo, Wistar rats; conditions: 10 mg/kg daily for 18 days
Protocol: Nerve crush of sciatic nerve was performed as follows. Before surgery, animals were anesthetized with subcutaneous injection of a Fenthanil/Droperidol/Medazolam (0.8 ml per 100 g). The right hind limb was shaved and swabbed with antiseptic solution. A longitudinal cutaneous incision was made in the back of the thigh. Dissection was carried out along a plane separating the hamstring and gluteal muscles to expose the sciatic nerve. Careful dissection was performed to isolate the sciatic nerve from the surrounding connective tissue over a length of 2 to 2.5 cm. The sciatic nerve was unilaterally crushed twice in the same place (0.5 cm upper trifurcation) for a 30 sec using a locking surgical needle holder. The place of the crush was labelled with 5-0 suture material attached to the epineurium. […] The bottom of the corridor was lined with paper, upon which the hind pawprints of the rat were recorded. […] Several prints of each foot were inspected, and the best corresponding pair of prints from experimental (E) and normal (N) legs were measured to the nearest millimeter, using a caliper. Three footprint parameters were measured: distance from the heel to the third toe, print length (PL), the distance between the first and fifth toe, toe spread (TS), and distance between the second and fourth toe, the intermediary toe spread (IT). […]

[4] = test system: focal brain injury on the right fronto-parietal cortex; experiment: Traumatic brain injury (cryolesion): TUNEL, GFAP, PCNA; assay type: in vivo, Rats and mice; conditions: 10 mg/kg s.c. at day -1, 1 and 2; post-lesion day 4
Protocol: A focal brain injury on the right fronto-parietal cortex was made by applying a piece of dry-ice (−78° C.) directly onto the skull for 30 seconds in mice and 60 seconds in rats, as previously described in details (Penkowa et al., 2003).
Histochemistry and immunohistochemistry were performed on sections cut from organs taken from fixated animals. Rats and mice were deeply anesthetized with Brietal and flushed by cardiac perfusion with saline containing heparine (0.9% NaCl, 3 ml/L 5000IU heparine) for 2 minutes followed by fixation with Zamboni's fixative (pH 7.4) for 4-8 minutes depending on the size of the animal. For immunohistochemical investigation, brain were dissected and postfixed in Zamboni's for 2-3 hours, dehydraded in graded alcohol followed by xylol and subsequently embedded in paraffin before being cut in 3 μm frontal sections throughout the entire area of the cryo lesion. For heat-induced epitope retrieval, the sections were boiled in citrate buffer (pH 6 or 9) in a microwave oven for 10 minutes followed by incubation in 10% goat serum (In Vitro, Fredensborg, DK) or donkey serum (code BP 005.1; The Binding Site, Birmingham, UK) in tris buffered saline (TBS)/Nonidet P-40 (0.01%) for 30 minutes at room temperature. Sections with mouse tissue used for incubation with monoclonal mouse-derived antibodies were also incubated with Blocking Solutions A+B from the HistoMouse-SP kit to quench endogenous mouse IgG (Zymed, Calif., USA).
Following treatment as described above, sections were incubated overnight at 5° C. with one of the following primary antibodies: polyclonal rabbit anti-cow glial fibrillary acidic protein (GFAP) 1:250 (a marker for astrocytes; DakoCytomation); monoclonal mouse anti-rat proliferating cellular nuclear antigen (PCNA) 1:10 (marking proliferating cell nuclear antigen/cell proliferation; DakoCytomation). The primary antibody was detected with biotynilated secondary antibodies, incubated with streptavidinbiotin-peroxidase complex for 30 min.
Terminal deoxynucleotidyl transferase (TdT)-mediated deoxyuridine triphosphate (dUTP)-biotin nick end labelling (TUNEL) was performed using the Fragment End Labeling (FragEL™) Detection Kit (Calbiochem, USA, code QIA33). The FragEL kit contains all the materials used below and each step was performed according to the manufacturer's recommendations. The tissue was processed and rehydrated as mentioned above, and sections were incubated with 20 µg/ml proteinase K for 20 min to strip off nuclear proteins. After immersion in equilibration buffer for 20 min, sections were incubated with TdT and biotin-labeled deoxynucleotids (dNTP-biotin) in a humified chamber at 37° C. for 1.5 hr. This was followed by wash buffer and the stop solution for 5 min at room temperature to stop the reaction. After washing in TBS and incubation in blocking buffer for 10 min, the sections were incubated with Peroxidase-Streptavidin for 30 min and afterwards, DAB was used as chromogen. The sections were counterstained with methyl-green. Negative control sections were treated similarly but incubated in the absence of TdT enzyme or dNTP-biotin or Peroxidase-Streptavidin. We also compared our sections with positive control slides provided in the FragEL Detection Kit. Furthermore, TUNEL was compared with other stainings for apoptosis (activated caspase-3, cytochrome-c and TNF[…]-R1). In addition, the morphologic criteria for apoptosis, i.e. cell shrinkage, formation of apoptotic bodies, membrane blebbing, no loss of cellular integrity, compaction of chromatin into uniformly dense masses, were evaluated.
In addition to morphological evaluation, quantification (cellular counts) of some of the variables, i.e. GFAP-positive cells, the area of GFAP-immunoreactivity, % of TUNEL-positive cells, % of proliferating cells, were analyzed. The analysis was carried out from the penumbra area of 3 μm brain sections for statistical analysis of the results. […]

hippocampal neurons = conditions: Novitskaya et al., 2000; cited from earlier work

Row | Substance | stimulation of neurite outgrowth in vitro (conclusion) [1] | neurite outgrowth from hippocampal primary neurons (average neurite length) [1] | neurite outgrowth from cerebellar primary neurons (average neurite length) (cerebellar (CGN) neurons) | phosphorylation level of Akt (Akt) | phosphorylation level of CREB (CREB) | phosphorylation level of ERK (ERK) | level of intracellular Ca2+ ([Ca2+]i) [2] | amount of seizures [3] | profile of seizures (severity) [3] | area of GFAP-immunoreactivity (astrogliosis) [4] | cell death (apoptosis, DNA fragmentation/TUNEL) in the cortex induced by cryolesion [4] | number of GFAP-positive cells (astrogliosis) [4] | also measured
1 | KELLTRELPSFLGKRT [A4H3, tetrameric peptide (hekatone) representing region 3 of S100A4] | potent stimulators of neurite outgrowth | strongly induced neurite outgrowth | strongly induced neurite outgrowth | significantly increased phosphorylation | significantly increased phosphorylation | significantly increased phosphorylation | but not H3 significantly increased | decreased the amount of seizures | towards less severe seizures types | increase | protected cells in the cortex from cell death | increase | recovery of the motor function of the injured limb (SFI) (sciatic nerve crush): strongly promoted the recovery
2 | HYHTHKE [A12H6, tetrameric peptide (hekatone) representing region 6 of S100A12] | potent stimulators of neurite outgrowth | – | – | – | – | – | – | – | – | – | – | – | –
3 | NEFFEGFPDKQPRKK [A4H6, tetrameric peptide (hekatone) representing region 6 of S100A4] | potent stimulators of neurite outgrowth | strongly induced neurite outgrowth | strongly induced neurite outgrowth | significantly increased phosphorylation | significantly increased phosphorylation | significantly increased phosphorylation | significantly increased | decreased the amount of seizures | towards less severe seizures types | increase | protected cells in the cortex from cell death | increase | –
4 | KQLLTKELANTIKNIK [A12H3, tetrameric peptide (hekatone) representing region 3 of S100A12] | – | strongly induced neurite outgrowth | strongly induced neurite outgrowth | – | – | – | – | – | – | – | – | – | –
5 | DEAAFQKLMSNLD [A4H4, tetrameric peptide (hekatone) representing region 4 of S100A4] | – | – | – | – | – | – | – | – | – | – | – | – | proliferation of neural progenitor cells [4]: strongly induced proliferation
6 | S100A4: S100 family Ca2+-binding protein S100A4 (also termed Mts1) | – | – | – | – | – | – | – | – | – | – | – | – | neurite outgrowth in hippocampal neurons in vitro (hippocampal neurons): potent promoter of neurite outgrowth
